This is an account of results in patent publication US9133183B2, “Imidazolidinones and analogs exhibiting anti-cancer and anti-proliferative activities” (Deciphera Pharmaceuticals, LLC, priority 2013, dated 2015).

For test [1], the system named is M-NFS-60 cells. Nature of the test: M-NFS-60 cell proliferation assay (resazurin). It counts as cell-based. To be noted: 67 h incubation. Put shortly:
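Cells kept in medium containing 20 ng/mL mouse recombinant M-CSF. Fluorescence was read at ex 540/em 600 nm, and IC50 was fitted from percent inhibition across a range of inhibitor concentrations.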
(Alamar Blue is a resazurin reagent that responds to reducing activity.)

The test system of test [2] is osteoclast precursors. Kind of test: Osteoclast tartrate-resistant acid phosphatase assay. Type of test: cell-based. Particulars: Osteoclast, 7-14 days, RANKL and M-CSF.
Test [3] has as its target cMET kinase (Homo sapiens (Human), UniProt P08581). Kind of test: cMET kinase inhibition (Table 4). Type of test: biochemical.
Test [4] concerns the target KDR kinase (Homo sapiens (Human), UniProt P35968). Nature of the test: KDR kinase inhibition (Table 4). Type of test: biochemical.
The subject of test [5] is c-FMS. Kind of test: cFOS mRNA production in a c-FMS mouse spleen pharmacodynamic model. It counts as in vivo. To be noted: out to 8 h post 30 mg/kg dose, single oral dose. Here is the method:
Analysis of cFOS mRNA Production in a c-FMS Mouse Spleen Pharmacodynamic Model
To examine the in vivo modulation of FMS activity by compounds of formula I, spleen samples from female DBA/1 mice were collected and analyzed for M-CSF stimulated production of cFOS mRNA. Briefly, six to seven week old female Taconic DBA/1BO J Bom Tac mice were treated with a single oral dose (by gavage) of either vehicle or compound. Plasma and spleen samples were collected from four mice at each timepoint 2, 4, 6, 8, 12, 18, and 24 hours after dosing. Fifteen minutes prior to euthanasia, all mice were injected IV with 1 μg (100 μL fixed volume) of M-CSF. M-CSF, Recombinant Mouse Macrophage Colony Stimulating Factor (36.4 kDa homodimer, ≧98% purity) was obtained from Gibco. All procedures carried out in this experiment were conducted in compliance with all the laws, regulations and guidelines of the National Institutes of Health (NIH). cFOS mRNA levels in spleen extracts were determined using a quantitative reverse transcriptase PCR kit from Life Technologies. Plasma levels of FMS inhibitors were determined by mass spectrometer analysis. The degree of FMS inhibition was correlative to the amount of decrease observed in cFOS mRNA levels in the spleen samples of treated animals compared to vehicle.

The test system of test [6] is MDA-MB-231-luc-D3H2LN human breast carcinoma xenograft. Nature of the test: MDA-MB-231 xenograft study. Type of test: in vivo, mouse. To be noted: orally dosed at 30 mg/kg twice daily. The protocol:
MDA-MB-231 Xenograft Study
To evaluate the in vivo anti-cancer activity compounds of formula I, a MDA-MB-231-luc-D3H2LN human breast carcinoma xenograft was employed. Briefly, MDA-MB-231-luc-D3H2LN cells were obtained from Xenogen and expanded in Minimal Essential Media (MEM) with EBSS which was modified with 1% L-glutamine and supplemented with 10% FBS, 1% PSG, 1% non-essential amino acids, and 1% sodium pyruvate. The growth environment was maintained in an incubator with a 5% CO2 atmosphere at 37° C. Cells were harvested and re-suspended using 50% serum-free media and 50% Matrigel® to generate a stock concentration of 5×10^6 cells/mL.
Six to 7 week old female C.B-17/IcrHsd-PrkdcscidLystbg mice were injected with 200 μL of cell suspension subcutaneously, just below the right axilla. All procedures carried out in this experiment were conducted in compliance with all the laws, regulations and guidelines of the National Institutes of Health (NIH). Treatment began when the mean tumor burden was approximately 150 mg. All mice were dosed with test compound by oral gavage. Body weights and tumor measurements were recorded three times weekly. […] Images were analyzed using Living Image (Xenogen, Alameda, Calif.) software. […]

Sequence of KDR kinase (P35968 20-1356): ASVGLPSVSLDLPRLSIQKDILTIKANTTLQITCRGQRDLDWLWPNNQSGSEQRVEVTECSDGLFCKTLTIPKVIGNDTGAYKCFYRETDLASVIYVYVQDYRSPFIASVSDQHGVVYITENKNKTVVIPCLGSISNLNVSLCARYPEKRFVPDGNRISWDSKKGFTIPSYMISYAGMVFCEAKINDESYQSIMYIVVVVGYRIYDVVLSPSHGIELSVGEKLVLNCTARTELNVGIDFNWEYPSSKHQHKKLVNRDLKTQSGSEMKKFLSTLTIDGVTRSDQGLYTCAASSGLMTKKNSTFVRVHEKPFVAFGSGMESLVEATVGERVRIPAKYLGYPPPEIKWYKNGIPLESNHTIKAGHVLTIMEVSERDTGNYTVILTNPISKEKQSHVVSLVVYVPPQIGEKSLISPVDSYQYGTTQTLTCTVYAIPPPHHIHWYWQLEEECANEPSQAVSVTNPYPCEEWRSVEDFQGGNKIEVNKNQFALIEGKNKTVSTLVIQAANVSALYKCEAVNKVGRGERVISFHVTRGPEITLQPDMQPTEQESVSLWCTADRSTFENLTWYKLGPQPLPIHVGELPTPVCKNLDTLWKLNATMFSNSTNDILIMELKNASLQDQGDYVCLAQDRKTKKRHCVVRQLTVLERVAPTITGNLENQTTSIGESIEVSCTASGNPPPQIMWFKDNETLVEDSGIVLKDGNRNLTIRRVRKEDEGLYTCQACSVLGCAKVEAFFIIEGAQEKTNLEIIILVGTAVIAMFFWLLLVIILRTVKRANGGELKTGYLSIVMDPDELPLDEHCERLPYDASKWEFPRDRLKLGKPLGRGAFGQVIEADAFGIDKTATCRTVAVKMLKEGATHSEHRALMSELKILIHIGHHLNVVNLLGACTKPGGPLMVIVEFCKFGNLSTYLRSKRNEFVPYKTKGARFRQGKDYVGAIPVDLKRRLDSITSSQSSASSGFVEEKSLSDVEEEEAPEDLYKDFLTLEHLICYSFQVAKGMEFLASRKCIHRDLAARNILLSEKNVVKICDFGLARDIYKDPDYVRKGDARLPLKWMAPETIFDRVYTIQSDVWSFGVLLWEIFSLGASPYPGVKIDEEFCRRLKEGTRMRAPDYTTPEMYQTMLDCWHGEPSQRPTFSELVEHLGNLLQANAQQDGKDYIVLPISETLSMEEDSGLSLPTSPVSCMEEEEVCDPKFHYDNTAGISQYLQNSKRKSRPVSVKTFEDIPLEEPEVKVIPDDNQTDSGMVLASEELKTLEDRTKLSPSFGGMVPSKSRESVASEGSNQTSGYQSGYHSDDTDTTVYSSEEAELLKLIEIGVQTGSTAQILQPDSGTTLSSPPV
Sequence of cMET kinase (P08581 25-1390): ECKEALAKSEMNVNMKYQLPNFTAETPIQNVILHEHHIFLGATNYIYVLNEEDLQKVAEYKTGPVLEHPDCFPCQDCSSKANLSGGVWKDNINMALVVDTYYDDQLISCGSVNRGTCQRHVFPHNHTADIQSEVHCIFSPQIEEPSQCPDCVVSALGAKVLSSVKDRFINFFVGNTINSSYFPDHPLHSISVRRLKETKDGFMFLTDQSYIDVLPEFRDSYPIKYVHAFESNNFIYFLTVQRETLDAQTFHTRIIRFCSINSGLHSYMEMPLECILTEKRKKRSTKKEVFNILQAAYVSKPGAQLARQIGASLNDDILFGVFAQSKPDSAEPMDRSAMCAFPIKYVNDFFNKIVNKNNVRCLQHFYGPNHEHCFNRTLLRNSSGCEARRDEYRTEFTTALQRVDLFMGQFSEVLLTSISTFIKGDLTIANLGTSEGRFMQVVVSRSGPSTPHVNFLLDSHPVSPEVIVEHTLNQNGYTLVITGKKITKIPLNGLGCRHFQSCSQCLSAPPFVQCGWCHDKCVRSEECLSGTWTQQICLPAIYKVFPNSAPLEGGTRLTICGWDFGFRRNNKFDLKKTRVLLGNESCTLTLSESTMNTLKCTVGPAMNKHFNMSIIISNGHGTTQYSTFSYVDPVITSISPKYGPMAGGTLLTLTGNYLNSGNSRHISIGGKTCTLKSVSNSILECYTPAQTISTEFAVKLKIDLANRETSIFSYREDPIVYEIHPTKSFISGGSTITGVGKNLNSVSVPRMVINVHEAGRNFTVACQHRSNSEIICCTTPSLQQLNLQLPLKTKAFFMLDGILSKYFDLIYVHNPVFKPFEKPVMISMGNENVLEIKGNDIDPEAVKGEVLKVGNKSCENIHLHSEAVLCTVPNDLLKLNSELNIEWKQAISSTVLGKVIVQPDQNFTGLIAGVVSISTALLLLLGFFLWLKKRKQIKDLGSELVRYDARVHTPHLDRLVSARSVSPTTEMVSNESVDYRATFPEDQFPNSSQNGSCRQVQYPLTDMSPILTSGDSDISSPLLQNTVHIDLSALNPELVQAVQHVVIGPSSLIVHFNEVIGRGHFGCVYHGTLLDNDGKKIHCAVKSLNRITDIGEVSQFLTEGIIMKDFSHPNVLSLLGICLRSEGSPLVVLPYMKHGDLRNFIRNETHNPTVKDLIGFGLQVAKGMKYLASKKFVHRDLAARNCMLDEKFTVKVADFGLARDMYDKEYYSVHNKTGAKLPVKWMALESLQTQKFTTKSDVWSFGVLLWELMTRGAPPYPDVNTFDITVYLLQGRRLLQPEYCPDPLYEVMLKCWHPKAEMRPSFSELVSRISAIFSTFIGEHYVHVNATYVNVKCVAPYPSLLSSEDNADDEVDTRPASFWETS

For `Cn1cc(-c2cc(Oc3ccc(NC(=O)N4CCN(C5CCOCC5)C4=O)nc3)ccn2)cn1` [Example 1, N-(5-((2-(1-methyl-1H-pyrazol-4-yl)pyridin-4-yl)oxy)pyridin-2-yl)-2-oxo-3-(tetrahydro-2H-pyran-4-yl)imidazolidine-1-carboxamide], the IC50 was 10 to 100 nM in test [1], 10 to 100 nM in test [2], over 5000 nM in test [3] and over 3300 nM in test [4].
As to `COCCN1CCN(C(=O)Nc2ccc(Oc3ccnc(-c4cnn(C)c4)c3)c(C)n2)C1=O` [Example 18, 3-(2-methoxyethyl)-N-(6-methyl-5-((2-(1-methyl-1H-pyrazol-4-yl)pyridin-4-yl)oxy)pyridin-2-yl)-2-oxoimidazolidine-1-carboxamide], the IC50 is 100 to 1000 nM in test [1], 10 to 100 nM in test [2], over 5000 nM in test [3] and over 3300 nM in test [4]. Also, in test [5], the “inhibition of cFOS mRNA levels” value was at least 70%. The compound also yielded a tumor growth inhibition in test [6] of 51%.
Consider `Cc1nc(NC(=O)N2CCN(C3CCCC3)C2=O)ccc1Oc1ccnc(-c2cnn(C)c2)c1` [Example 29, 3-cyclopentyl-N-(6-methyl-5-((2-(1-methyl-1H-pyrazol-4-yl)pyridin-4-yl)oxy)pyridin-2-yl)-2-oxoimidazolidine-1-carboxamide], for which the IC50 is under 10 nM in test [1], under 10 nM in test [2], 898 nM in test [3] and over 3300 nM in test [4].
`Cc1nc(NC(=O)N2CCN(C)C2=O)ccc1Oc1ccnc(-c2cnn(C)c2)c1` [Example 41, 3-methyl-N-(6-methyl-5-((2-(1-methyl-1H-pyrazol-4-yl)pyridin-4-yl)oxy)pyridin-2-yl)-2-oxoimidazolidine-1-carboxamide]: the values for the IC50 in test [1] and in test [2] were 100 to 1000 nM and 10 to 100 nM, respectively. Moreover, the “inhibition of cFOS mRNA levels” value in test [5] is listed as at least 70%.
`CCN1CCN(C(=O)Nc2ccc(Oc3ccnc(-c4cnn(C)c4)c3)c(C)n2)C1=O` [Example 42, 3-ethyl-N-(6-methyl-5-((2-(1-methyl-1H-pyrazol-4-yl)pyridin-4-yl)oxy)pyridin-2-yl)-2-oxoimidazolidine-1-carboxamide]: the 50% inhibitory concentration (IC50) in test [1] is 10 to 100 nM; in test [2] it was under 10 nM; in test [3], over 5000 nM; in test [4], over 10000 nM. The “inhibition of cFOS mRNA levels” value in test [5] is at least 70%.
As for `CCc1nc(NC(=O)N2CCN(C3CCOCC3)C2=O)ccc1Oc1ccnc(-c2cnn(C)c2)c1` [Example 49, N-(6-ethyl-5-((2-(1-methyl-1H-pyrazol-4-yl)pyridin-4-yl)oxy)pyridin-2-yl)-2-oxo-3-(tetrahydro-2H-pyran-4-yl)imidazolidine-1-carboxamide], the IC50 in test [1] was in the range of 100 to 1000 nM; in test [2], 10 to 100 nM.
`Cc1ccc(-c2cc(Oc3ccc(NC(=O)N4CCN(C5CCOCC5)C4=O)nc3)ccn2)cn1` [Example 52, N-(5-((6′-methyl-[2,3′-bipyridin]-4-yl)oxy)pyridin-2-yl)-2-oxo-3-(tetrahydro-2H-pyran-4-yl)imidazolidine-1-carboxamide]: the IC50 in test [1] and in test [2] was 10 to 100 nM in each case.
As to `Cc1ccc(-c2cc(Oc3ccc(NC(=O)N4CCN(C5CCOCC5)C4=O)nc3C)ccn2)cn1` [Example 54, N-(6-methyl-5-((6′-methyl-[2,3′-bipyridin]-4-yl)oxy)pyridin-2-yl)-2-oxo-3-(tetrahydro-2H-pyran-4-yl)imidazolidine-1-carboxamide], the IC50 in test [1] and in test [2] was 10 to 100 nM each time.
`CCc1nc(NC(=O)N2CCN(CC(F)(F)F)C2=O)ccc1Oc1ccnc(-c2cnn(C)c2)c1` [Example 56, N-(6-ethyl-5-((2-(1-methyl-1H-pyrazol-4-yl)pyridin-4-yl)oxy)pyridin-2-yl)-2-oxo-3-(2,2,2-trifluoroethyl)imidazolidine-1-carboxamide]: the IC50 in test [1] was 10 to 100 nM; in test [2] it was 100 to 1000 nM.
For the compound `CCc1nc(NC(=O)N2CCN(C3CCCC3)C2=O)ccc1Oc1ccnc(-c2cnn(C)c2)c1` [Example 57, 3-cyclopentyl-N-(6-ethyl-5-((2-(1-methyl-1H-pyrazol-4-yl)pyridin-4-yl)oxy)pyridin-2-yl)-2-oxoimidazolidine-1-carboxamide], the IC50 was under 10 nM in test [1] and 10 to 100 nM in test [2].
In the case of `CCc1nc(NC(=O)N2CCN(C3CC3)C2=O)ccc1Oc1ccnc(-c2cnn(C)c2)c1` [Example 58, 3-cyclopropyl-N-(6-ethyl-5-((2-(1-methyl-1H-pyrazol-4-yl)pyridin-4-yl)oxy)pyridin-2-yl)-2-oxoimidazolidine-1-carboxamide], the concentration for half-maximal inhibition (IC50) in test [1] and in test [2] was 10 to 100 nM in each case.
Take `CCN1CCN(C(=O)Nc2ccc(Oc3ccnc(-c4ccc(C5CCN(C)CC5)cc4)c3)c(C)n2)C1=O` [Example 61, 3-ethyl-N-(6-methyl-5-((2-(4-(1-methylpiperidin-4-yl)phenyl)pyridin-4-yl)oxy)pyridin-2-yl)-2-oxoimidazolidine-1-carboxamide]: the IC50 in test [1] and in test [2] was under 10 nM each time.
As for `Cc1cc(NC(=O)N2CCN(C)C2=O)ncc1Oc1ccnc(-c2cnn(C)c2)c1` [Example 85, 3-methyl-N-(4-methyl-5-((2-(1-methyl-1H-pyrazol-4-yl)pyridin-4-yl)oxy)pyridin-2-yl)-2-oxoimidazolidine-1-carboxamide], the IC50 was 10 to 100 nM in test [1] and under 10 nM in test [2].
As to `CCN1CCN(C(=O)Nc2cc(C)c(Oc3ccnc(-n4cnc(C)c4)c3)cn2)C1=O` [Example 88, 3-ethyl-N-(4-methyl-5-((2-(4-methyl-1H-imidazol-1-yl)pyridin-4-yl)oxy)pyridin-2-yl)-2-oxoimidazolidine-1-carboxamide], the IC50 in test [1] and in test [2] was 10 to 100 nM each time.
With `CCN1CCN(C(=O)Nc2ccc(Oc3ccnc(-c4cnc(C)o4)c3)cn2)C1=O` [Example 117, 3-ethyl-N-(5-((2-(2-methyloxazol-5-yl)pyridin-4-yl)oxy)pyridin-2-yl)-2-oxoimidazolidine-1-carboxamide], the IC50 in test [1] lay in the range of 100 to 1000 nM; in test [2] it was 10 to 100 nM.
For `CCN1CCN(C(=O)Nc2ccc(Oc3ccnc(-c4ccnc(C)c4)c3)c(C)n2)C1=O` [Example 118, 3-ethyl-N-(6-methyl-5-((2′-methyl-[2,4′-bipyridin]-4-yl)oxy)pyridin-2-yl)-2-oxoimidazolidine-1-carboxamide], the IC50 in test [1] and in test [2] was 10 to 100 nM throughout. In addition, in test [5], the “inhibition of cFOS mRNA levels” value is listed as at least 70%.
As for `CC(=O)Nc1cc(Oc2ccc(NC(=O)N3CCN(C4CCOCC4)C3=O)nc2)ccn1` [Example 119, N-(5-((2-acetamidopyridin-4-yl)oxy)pyridin-2-yl)-2-oxo-3-(tetrahydro-2H-pyran-4-yl)imidazolidine-1-carboxamide], the IC50 in test [1] and in test [2] was 10 to 100 nM in each case.
Turning to `CN(C)C(=O)Nc1cc(Oc2ccc(NC(=O)N3CCN(C4CCOCC4)C3=O)nc2)ccn1` [Example 120, N-(5-((2-(3,3-dimethylureido)pyridin-4-yl)oxy)pyridin-2-yl)-2-oxo-3-(tetrahydro-2H-pyran-4-yl)imidazolidine-1-carboxamide], the figures for the IC50 in test [1] and in test [2] were 10 to 100 nM and under 10 nM, respectively.

One may read the IC50 as the midpoint of a concentration-inhibition curve.
